Data: patent EP0908457B1, “3-(1,2-benzisothiazol- and isoxazol-5-Y1)-2,4(1H,3H)-pyrimidinedione or thione and 3-(1,2-benzisothiazol- and isoxazol-5-y1)-4(3H)-pyrimidinone or thione herbicidal agents” (BASF AKTIENGESELLSCHAFT, priority 1997, dated 1999)

Columns and labels:
[1] = test system: Cyperus serotinus, Rottb.; assay: Postemergence weed control under flooded paddy conditions, CYPSE (Flatsedge); type: in vivo; conditions: rated three to four weeks after treatment
[2] = test system: Oryza sativa, (L.) Tebonnet; assay: Rice tolerance to post-transplant applications under flooded paddy conditions (Example 187), ORYSAT (Rice, Tebonnet); conditions: rated three to four weeks after treatment
[3] = test system: Echinochloa oryzoides (Ard.) Fritsch.; assay: Preemergence weed control under flooded paddy conditions, ECHORC (Watergrass (Calif.)); type: in vivo; conditions: preemergence, flooded paddy, rated three to four weeks after treatment; note: meaning of each grade not given here
Sagittaria pygmaea, L. [4] = assay: Preemergence weed control under flooded paddy conditions, SAGPY (Arrowhead (Pygmaea)); type: in vivo; conditions: preemergence, flooded paddy, rated three to four weeks after treatment; note: meaning of each grade not given here
[5] = test system: Oryza sativa, (L.) Tebonnet; assay: Rice tolerance to post-transplant applications under flooded paddy conditions (Example 188), ORYSAT (Rice, Tebonnet); conditions: rated three to four weeks after treatment
[6] = test system: Monochoria vaginalis, Presl.; assay: Postemergence weed control under flooded paddy conditions, MOOVA (Monochoria); type: in vivo; conditions: rated three to four weeks after treatment
Cyperus iria [7] = assay: Preemergence weed control under flooded paddy conditions, CYPIR (Rice Flatsedge); type: in vivo; conditions: preemergence, flooded paddy, rated three to four weeks after treatment; note: meaning of each grade not given here
Sagittaria pygmaea, L. [8] = assay: Postemergence weed control under flooded paddy conditions, SAGPY (Arrowhead (Pygmaea)); type: in vivo; conditions: rated three to four weeks after treatment
[9] = test system: Monochoria vaginalis, Presl.; assay: Preemergence weed control under flooded paddy conditions, MOOVA (Monochoria); type: in vivo; conditions: preemergence, flooded paddy, rated three to four weeks after treatment; note: meaning of each grade not given here
[10] = test system: Echinochloa oryzoides (Ard.) Fritsch.; assay: Postemergence weed control under flooded paddy conditions, ECHORC (Watergrass (Calif.)); type: in vivo; conditions: rated three to four weeks after treatment
Cyperus iria [11] = assay: Postemergence weed control under flooded paddy conditions, CYPIR (Rice Flatsedge); type: in vivo; conditions: rated three to four weeks after treatment
[12] = test system: Cyperus serotinus, Rottb.; assay: Preemergence weed control under flooded paddy conditions, CYPSE (Flatsedge); type: in vivo; conditions: preemergence, rated three to four weeks after treatment; note: meaning of each grade not given here

## COC(=O)C(C)Oc1cc(C)c(C)cc1-c1nsc2ccc(-n3c(=O)cc(C(F)(F)F)n(C)c3=O)cc12 (stereo not drawn) [Example 13, Methyl 2-{{6-{5-[3,6-dihydro-3-methyl-4-(trifluoromethyl)-2,6-dioxo-1(2H)-pyrimidinyl]-1,2-benzisothiazol-3-yl}-3,4-xylyl}oxy}propionate]
[1]; Rate 0.0313 kg/ha
  herbicidal effect rating, CYPSE: 0.0
[1]; Rate 0.0625 kg/ha
  herbicidal effect rating, CYPSE: 0.0
[1]; Rate 0.1250 kg/ha
  herbicidal effect rating, CYPSE: 2.0
[1]; Rate 0.2500 kg/ha
  herbicidal effect rating, CYPSE: 4.0
[1]; Rate 0.5000 kg/ha
  herbicidal effect rating, CYPSE: 2.0
[2]; 0.0313 kg/ha
  herbicidal effect rating, ORYSAT (rice tolerance): 4.0
[2]; 0.0625 kg/ha
  herbicidal effect rating, ORYSAT (rice tolerance): 6.0
[2]; 0.1250 kg/ha
  herbicidal effect rating, ORYSAT (rice tolerance): 7.0
[2]; 0.2500 kg/ha
  herbicidal effect rating, ORYSAT (rice tolerance): 7.0
[2]; 0.5000 kg/ha
  herbicidal effect rating, ORYSAT (rice tolerance): 9.0
[3]; 0.0313 kg/ha
  herbicidal effect rating, ECHORC: 9.0
[3]; 0.0625 kg/ha
  herbicidal effect rating, ECHORC: 9.0
[3]; 0.1250 kg/ha
  herbicidal effect rating, ECHORC: 9.0
[3]; 0.2500 kg/ha
  herbicidal effect rating, ECHORC: 9.0
[3]; 0.5000 kg/ha
  herbicidal effect rating, ECHORC: 9.0
Sagittaria pygmaea, L. [4]; 0.0313 kg/ha
  herbicidal effect rating, SAGPY: 0.0
Sagittaria pygmaea, L. [4]; 0.0625 kg/ha
  herbicidal effect rating, SAGPY: 2.0
Sagittaria pygmaea, L. [4]; 0.1250 kg/ha
  herbicidal effect rating, SAGPY: 6.0
Sagittaria pygmaea, L. [4]; 0.2500 kg/ha
  herbicidal effect rating, SAGPY: 8.0
Sagittaria pygmaea, L. [4]; 0.5000 kg/ha
  herbicidal effect rating, SAGPY: 9.0
[5]; Rate 0.0313 kg/ha
  herbicidal effect rating, ORYSAT (rice tolerance): 2.0
[5]; Rate 0.0625 kg/ha
  herbicidal effect rating, ORYSAT (rice tolerance): 2.0
[5]; Rate 0.1250 kg/ha
  herbicidal effect rating, ORYSAT (rice tolerance): 4.0
[5]; Rate 0.2500 kg/ha
  herbicidal effect rating, ORYSAT (rice tolerance): 4.0
[5]; Rate 0.5000 kg/ha
  herbicidal effect rating, ORYSAT (rice tolerance): 7.0
[6]; Rate 0.0313 kg/ha
  herbicidal effect rating, MOOVA: 9.0
[6]; Rate 0.0625 kg/ha
  herbicidal effect rating, MOOVA: 9.0
[6]; Rate 0.1250 kg/ha
  herbicidal effect rating, MOOVA: 9.0
[6]; Rate 0.2500 kg/ha
  herbicidal effect rating, MOOVA: 9.0
[6]; Rate 0.5000 kg/ha
  herbicidal effect rating, MOOVA: 9.0
Cyperus iria [7]; 0.0313 kg/ha
  herbicidal effect rating, CYPIR: 9.0
Cyperus iria [7]; 0.0625 kg/ha
  herbicidal effect rating, CYPIR: 9.0
Cyperus iria [7]; 0.1250 kg/ha
  herbicidal effect rating, CYPIR: 9.0
Cyperus iria [7]; 0.2500 kg/ha
  herbicidal effect rating, CYPIR: 9.0
Cyperus iria [7]; 0.5000 kg/ha
  herbicidal effect rating, CYPIR: 9.0
Sagittaria pygmaea, L. [8]; Rate 0.0313 kg/ha
  herbicidal effect rating, SAGPY: 0.0
Sagittaria pygmaea, L. [8]; Rate 0.0625 kg/ha
  herbicidal effect rating, SAGPY: 0.0
Sagittaria pygmaea, L. [8]; Rate 0.1250 kg/ha
  herbicidal effect rating, SAGPY: 2.0
Sagittaria pygmaea, L. [8]; Rate 0.2500 kg/ha
  herbicidal effect rating, SAGPY: 2.0
Sagittaria pygmaea, L. [8]; Rate 0.5000 kg/ha
  herbicidal effect rating, SAGPY: 9.0
[9]; 0.0313 kg/ha
  herbicidal effect rating, MOOVA: 9.0
[9]; 0.0625 kg/ha
  herbicidal effect rating, MOOVA: 9.0
[9]; 0.1250 kg/ha
  herbicidal effect rating, MOOVA: 9.0
[9]; 0.2500 kg/ha
  herbicidal effect rating, MOOVA: 9.0
[9]; 0.5000 kg/ha
  herbicidal effect rating, MOOVA: 9.0
[10]; Rate 0.0313 kg/ha
  herbicidal effect rating, ECHORC: 0.0
[10]; Rate 0.0625 kg/ha
  herbicidal effect rating, ECHORC: 2.0
[10]; Rate 0.1250 kg/ha
  herbicidal effect rating, ECHORC: 6.0
[10]; Rate 0.2500 kg/ha
  herbicidal effect rating, ECHORC: 8.0
[10]; Rate 0.5000 kg/ha
  herbicidal effect rating, ECHORC: 9.0
Cyperus iria [11]; Rate 0.0313 kg/ha
  herbicidal effect rating, CYPIR: 9.0
Cyperus iria [11]; Rate 0.0625 kg/ha
  herbicidal effect rating, CYPIR: 9.0
Cyperus iria [11]; Rate 0.1250 kg/ha
  herbicidal effect rating, CYPIR: 9.0
Cyperus iria [11]; Rate 0.2500 kg/ha
  herbicidal effect rating, CYPIR: 9.0
Cyperus iria [11]; Rate 0.5000 kg/ha
  herbicidal effect rating, CYPIR: 9.0
[12]; 0.0313 kg/ha
  herbicidal effect rating, CYPSE: 0.0
[12]; 0.0625 kg/ha
  herbicidal effect rating, CYPSE: 2.0
[12]; 0.1250 kg/ha
  herbicidal effect rating, CYPSE: 7.0
[12]; 0.2500 kg/ha
  herbicidal effect rating, CYPSE: 7.0
[12]; 0.5000 kg/ha
  herbicidal effect rating, CYPSE: 7.0
